Assay results as given in the supplement of paper PMC13380429.

Key:
Settings in all cases: 72 h
[1] = test system: U2OS; assay: cell viability relative to DMSO; higher = less toxic
[2] = test system: Calu-3; assay: as above
[3] = test system: Caco-2; assay: as above
[4] = test system: Vero E6; assay: as above
[5] = test system: HepG2; assay: as above
[6] = test system: U2OS; assay: drug sensitivity score (DSS) for viability; higher = more toxic; extreme values may be limits of the assay
[7] = test system: Calu-3; assay: as above
[8] = test system: Caco-2; assay: as above
[9] = test system: Vero E6; assay: as above
[10] = test system: HepG2; assay: as above
[11] = test system: U2OS; assay: relative viability EC50 (midpoint between 100% and the lowest measured viability); higher = less toxic
[12] = test system: Calu-3; assay: as above
[13] = test system: Caco-2; assay: as above
[14] = test system: Vero E6; assay: as above
[15] = test system: HepG2; assay: as above

| SMILES | cell viability ([1]; 1 nM) [%] | cell viability ([1]; 10 nM) [%] | cell viability ([1]; 100 nM) [%] | cell viability ([1]; 1000 nM) [%] | cell viability ([1]; 10000 nM) [%] | cell viability ([2]; 1 nM) [%] | cell viability ([2]; 10 nM) [%] | cell viability ([2]; 100 nM) [%] | cell viability ([2]; 1000 nM) [%] | cell viability ([2]; 10000 nM) [%] | cell viability ([3]; 1 nM) [%] | cell viability ([3]; 10 nM) [%] | cell viability ([3]; 100 nM) [%] | cell viability ([3]; 1000 nM) [%] | cell viability ([3]; 10000 nM) [%] | cell viability ([4]; 1 nM) [%] | cell viability ([4]; 10 nM) [%] | cell viability ([4]; 100 nM) [%] | cell viability ([4]; 1000 nM) [%] | cell viability ([4]; 10000 nM) [%] | cell viability ([5]; 1 nM) [%] | cell viability ([5]; 10 nM) [%] | cell viability ([5]; 100 nM) [%] | cell viability ([5]; 1000 nM) [%] | cell viability ([5]; 10000 nM) [%] | drug sensitivity score [6] | drug sensitivity score [7] | drug sensitivity score [8] | drug sensitivity score [9] | drug sensitivity score [10] | relative viability EC50 [11] [µM] | relative viability EC50 [12] [µM] | relative viability EC50 [13] [µM] | relative viability EC50 [14] [µM] | relative viability EC50 [15] [µM] |
| --- | --- | --- | --- | --- | --- | --- | --- | --- | --- | --- | --- | --- | --- | --- | --- | --- | --- | --- | --- | --- | --- | --- | --- | --- | --- | --- | --- | --- | --- | --- | --- | --- | --- | --- | --- |
| C[C@@H](O[C@H]1OCCN(Cc2n[nH]c(=O)[nH]2)[C@H]1c1ccc(F)cc1)c1cc(C(F)(F)F)cc(C(F)(F)F)c1 [aprepitant] | 99.5 | 103 | 95.3 | 102 | 88.4 | 90.9 | 105 | 103 | 97.7 | 97.1 | 100 | 107 | 100 | 105 | 89.2 | 97.4 | 104 | 98.8 | 103 | 103 | 102 | 103 | 106 | 109 | 95.3 | 0 | 0 | 0 | 0 | 0 | > 10 | > 10 | > 10 | > 10 | > 10 |
| CC1=C(/C=C/C(C)=C/C=C/C(C)=C/C=C/C=C(C)/C=C/C=C(C)/C=C/C2=C(C)C(=O)[C@@H](O)CC2(C)C)C(C)(C)C[C@H](O)C1=O [astaxanthin] | 97.8 | 104 | 100 | 93.6 | 98.4 | 98.9 | 97.6 | 101 | 96.4 | 99.6 | 103 | 109 | 84 | 84.8 | 81.9 | 102 | 96.9 | 103 | 101 | 92.1 | 84.3 | 102 | 98.9 | 102 | 107 | 0 | 0 | 3.6 | 0 | 0 | > 10 | > 10 | > 10 | > 10 | > 10 |
| O=C(Nc1nc(-c2cc(Cl)cs2)c(N2CCN(C3CCCCC3)CC2)s1)c1cnc(N2CCC(C(=O)O)CC2)c(Cl)c1 [avatrombopag] | 103 | 95.5 | 104 | 103 | 95.1 | 96.2 | 100 | 93.9 | 102 | 88.9 | 94.9 | 88.7 | 102 | 105 | 107 | 100 | 95 | 102 | 102 | 92 | 99.4 | 109 | 115 | 98 | 110 | 0 | 0 | 0 | 0 | 0 | > 10 | > 10 | > 10 | > 10 | > 10 |
| O=C(N[C@@H](Cc1c[nH]c2ccccc12)C(=O)O)c1ccc(Cl)cc1 [benzotript] | 96 | 99.5 | 94.3 | 101 | 95.9 | 87.8 | 99.4 | 98 | 100 | 108 | 99.9 | 102 | 101 | 100 | 99.4 | 104 | 99.3 | 98.1 | 102 | 107 | 99.7 | 98.1 | 102 | 103 | 108 | 0 | 0 | 0 | 0 | 0 | > 10 | > 10 | > 10 | > 10 | > 10 |
| CC1(C)CCC2=C(O1)c1ccccc1C(=O)C2=O [beta-lapachone] | 106 | 100 | 101 | 96.5 | 21.5 | 109 | 91.4 | 110 | 106 | 91.2 | 101 | 96.5 | 91.9 | 96.3 | 29.9 | 104 | 105 | 101 | 102 | 91.6 | 107 | 99.3 | 94.4 | 99.5 | 7.5 | 4.8 | 0 | 4.4 | 0 | 5.2 | 2.83 | > 10 | 2.75 | > 10 | 3.12 |
| O=C1c2ccccc2C(=O)C1c1ccc(Br)cc1 [bromindione] | 104 | 99.7 | 102 | 96.5 | 102 | 107 | 93.8 | 103 | 95.6 | 106 | 105 | 70.7 | 95.6 | 80.8 | 96.3 | 102 | 103 | 103 | 104 | 99.4 | 103 | 103 | 107 | 108 | 99.5 | 0 | 0 | 0 | 0 | 0 | > 10 | > 10 | > 10 | > 10 | > 10 |
| CCN(CC)CCNC(=O)c1cc(Br)c(N)cc1OC [bromopride] | 101 | 99.1 | 105 | 99.4 | 101 | 102 | 99 | 95.8 | 104 | 111 | 89.7 | 96.1 | 97.4 | 94.6 | 102 | 95.9 | 100 | 92.9 | 99.8 | 104 | 94.6 | 102 | 99 | 105 | 101 | 0 | 0 | 0 | 0 | 0 | > 10 | > 10 | > 10 | > 10 | > 10 |
